Values after ≈ are worked out from the molar mass of the structure shown. Read-outs that look alike come from different tables or passages of the source.
Assays:
[1] = tested on: parasitized human erythrocytes; assay: in vivo efficacy in the humanized SCID mouse model; conditions: for DOR (day of recrudescence): 50 mg/kg dose b.i.d. for 6 days; for CED90: estimated average blood concentration that induces no net parasite growth
Excerpt: During the study, samples of peripheral blood were taken from mice to measure the concentration of compounds and/or their metabolites.
CED90: estimated average blood concentration that induces no net parasite growth.
DoR was estimated by linear interpolation of % parasitemia the day before the rise to PO and the % parasitemia the day after reaching PO.

Dog DHODH [2] = biological target: T1, Dog DHODH (Canis lupus familiaris, UniProt A0A8I3MWX2); assay: biochemical
T1 sequence (A0A8I3MWX2 1-406): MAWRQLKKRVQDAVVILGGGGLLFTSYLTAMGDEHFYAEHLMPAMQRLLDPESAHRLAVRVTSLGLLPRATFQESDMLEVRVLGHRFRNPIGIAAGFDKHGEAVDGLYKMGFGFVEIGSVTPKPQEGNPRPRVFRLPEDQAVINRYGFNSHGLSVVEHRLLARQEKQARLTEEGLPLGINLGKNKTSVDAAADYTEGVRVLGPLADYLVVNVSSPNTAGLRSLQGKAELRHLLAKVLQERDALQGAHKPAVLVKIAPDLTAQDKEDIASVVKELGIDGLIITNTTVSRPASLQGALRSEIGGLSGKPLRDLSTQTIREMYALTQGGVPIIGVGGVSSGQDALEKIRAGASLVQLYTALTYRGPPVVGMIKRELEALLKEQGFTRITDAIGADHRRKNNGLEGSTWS
Description: (§1) DHODH Kinetic Analysis. […] Inhibitor stocks (100 mM) were prepared in DMSO in amber bottles. A 3-fold dilution series was generated in DMSO from these stocks and then dispensed into assay buffer via a 1/100 dilution to generate a final concentration range of 0.001-100 μM (1% DMSO final). Data were collected using triplicate technical replicates and where indicated additional biological replicates were collected (the number of biological replicates is provided in parenthesis). IC50's were determined by fitting the data to log (inhibitor) vs. response equation Y=Bottom+(Top−Bottom)/(1+10^((X−Log IC50))) in GraphPad Prism.

Human DHODH = Human DHODH (Homo sapiens (Human), UniProt Q02127); assay: DHODH kinetic analysis (DCIP assay); format: biochemical; conditions: 25° C.
Human DHODH, sequence (Q02127 whole entry): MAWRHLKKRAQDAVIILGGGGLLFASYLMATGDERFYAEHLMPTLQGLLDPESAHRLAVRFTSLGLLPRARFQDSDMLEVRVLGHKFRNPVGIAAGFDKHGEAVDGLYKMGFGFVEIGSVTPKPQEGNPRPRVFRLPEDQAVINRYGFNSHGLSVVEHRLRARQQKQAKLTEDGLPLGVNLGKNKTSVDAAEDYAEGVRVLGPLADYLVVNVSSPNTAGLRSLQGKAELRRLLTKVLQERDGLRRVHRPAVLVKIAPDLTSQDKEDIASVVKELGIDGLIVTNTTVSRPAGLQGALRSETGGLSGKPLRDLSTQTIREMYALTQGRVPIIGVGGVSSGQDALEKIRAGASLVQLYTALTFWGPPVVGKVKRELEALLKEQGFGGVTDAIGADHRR
Description: as §1

in vitro = conditions: human
Mouse DHODH = Mouse DHODH (Mus musculus (Mouse), UniProt O35435); assay: DHODH kinetic analysis (DCIP assay); format: biochemical; conditions: 25° C.
Mouse DHODH, sequence (O35435 whole entry): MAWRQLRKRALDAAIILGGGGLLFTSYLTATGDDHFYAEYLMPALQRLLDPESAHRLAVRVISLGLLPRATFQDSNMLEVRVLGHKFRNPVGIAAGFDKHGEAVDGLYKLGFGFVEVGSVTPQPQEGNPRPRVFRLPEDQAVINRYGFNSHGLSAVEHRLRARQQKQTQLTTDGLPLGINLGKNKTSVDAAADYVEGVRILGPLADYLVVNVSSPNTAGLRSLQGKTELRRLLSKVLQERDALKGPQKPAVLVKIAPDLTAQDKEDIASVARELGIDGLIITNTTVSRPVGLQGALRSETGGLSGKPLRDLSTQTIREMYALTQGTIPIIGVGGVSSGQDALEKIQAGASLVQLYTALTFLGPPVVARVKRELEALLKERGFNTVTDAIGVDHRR
Description: as §1

Rat DHODH = Rat DHODH (Rattus norvegicus (Rat), UniProt Q63707); assay: DHODH kinetic analysis (DCIP assay); format: biochemical; conditions: 25° C.
Rat DHODH, sequence (Q63707 whole entry): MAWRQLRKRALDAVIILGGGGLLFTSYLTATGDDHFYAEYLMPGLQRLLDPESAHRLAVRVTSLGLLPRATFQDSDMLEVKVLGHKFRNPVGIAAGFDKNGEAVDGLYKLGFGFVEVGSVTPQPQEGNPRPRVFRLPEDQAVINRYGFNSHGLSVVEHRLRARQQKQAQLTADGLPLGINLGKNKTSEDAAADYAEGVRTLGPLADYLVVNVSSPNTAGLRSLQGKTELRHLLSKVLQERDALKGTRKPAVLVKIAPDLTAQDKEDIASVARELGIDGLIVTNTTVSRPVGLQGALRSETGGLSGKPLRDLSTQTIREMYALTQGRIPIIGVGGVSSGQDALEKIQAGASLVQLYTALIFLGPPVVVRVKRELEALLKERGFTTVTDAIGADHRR
Description: as §1

physchem = conditions: pH 6.5, fassif
P. vivax DHODH = P. vivax DHODH (Plasmodium vivax, UniProt A5K1N1); assay: biochemical; format: biochemical
P. vivax DHODH, sequence (A5K1N1 1-572): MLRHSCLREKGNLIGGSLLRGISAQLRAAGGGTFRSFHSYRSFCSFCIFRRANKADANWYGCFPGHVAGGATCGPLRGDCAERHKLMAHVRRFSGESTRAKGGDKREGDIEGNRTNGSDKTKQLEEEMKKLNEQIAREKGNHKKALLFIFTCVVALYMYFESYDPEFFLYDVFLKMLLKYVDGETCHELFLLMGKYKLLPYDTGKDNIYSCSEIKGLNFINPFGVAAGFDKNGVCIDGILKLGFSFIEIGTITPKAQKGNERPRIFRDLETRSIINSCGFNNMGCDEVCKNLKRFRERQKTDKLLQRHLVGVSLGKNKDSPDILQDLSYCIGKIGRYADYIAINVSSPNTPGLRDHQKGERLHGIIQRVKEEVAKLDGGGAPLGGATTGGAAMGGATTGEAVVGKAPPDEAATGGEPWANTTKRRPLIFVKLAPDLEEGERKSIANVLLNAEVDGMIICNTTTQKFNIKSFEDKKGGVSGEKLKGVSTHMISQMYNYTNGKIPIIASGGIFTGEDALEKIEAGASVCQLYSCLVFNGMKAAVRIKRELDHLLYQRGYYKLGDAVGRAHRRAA
Description: as §1

P. falciparum 3D7 = assay: P. falciparum growth and inhibition assay (SYBR Green); format: cell-based; conditions: chloroquine-sensitive 3D7 strain, 72 h, albuMAX media
Description: P. falciparum growth and inhibition assays. […] DSMO inhibitor stocks (as above) were diluted in DMSO using a 2 or 3-fold dilution series and then dispensed into media at 10× the final concentrations. A second step into media led to final inhibitor concentrations ranging from 0.001-30 μM and a final DMSO concentration of 0.2%. […] Data were collected using triplicate technical replicates and where indicated additional biological replicates were collected (the number of biological replicates is provided in parenthesis).

P. falciparum DHODH = P. falciparum DHODH (Plasmodium falciparum (isolate 3D7), UniProt Q08210); format: biochemical; conditions: 25° C., DCIP assay
P. falciparum DHODH, sequence (Q08210 24-569 limits assumed): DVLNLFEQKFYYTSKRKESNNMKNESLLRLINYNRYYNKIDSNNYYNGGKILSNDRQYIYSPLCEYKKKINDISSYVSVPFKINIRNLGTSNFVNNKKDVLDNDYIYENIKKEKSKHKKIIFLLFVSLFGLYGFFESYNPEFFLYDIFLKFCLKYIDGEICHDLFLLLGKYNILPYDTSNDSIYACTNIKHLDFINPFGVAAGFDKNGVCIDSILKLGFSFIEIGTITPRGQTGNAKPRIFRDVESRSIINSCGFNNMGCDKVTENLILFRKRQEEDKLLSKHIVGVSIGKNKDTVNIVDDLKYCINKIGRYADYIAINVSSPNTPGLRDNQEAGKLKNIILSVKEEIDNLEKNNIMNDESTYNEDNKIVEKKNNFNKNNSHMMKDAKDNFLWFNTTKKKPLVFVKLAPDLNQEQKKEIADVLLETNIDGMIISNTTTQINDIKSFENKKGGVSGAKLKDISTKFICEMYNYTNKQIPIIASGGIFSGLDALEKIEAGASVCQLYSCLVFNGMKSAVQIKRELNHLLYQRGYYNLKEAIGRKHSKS
Description: Inhibitor stocks (100 mM) were prepared in DMSO in amber bottles. A 3-fold dilution series was generated in DMSO from these stocks and then dispensed into assay buffer via a 1/100 dilution to generate a final concentration range of 0.001-100 μM (1% DMSO final). Data were collected using triplicate technical replicates and where indicated additional biological replicates were collected (the number of biological replicates is provided in parenthesis). IC50's were determined by fitting the data to log (inhibitor) vs. response equation Y=Bottom+(Top−Bottom)/(1+10^((X−Log IC50))) in GraphPad Prism.

Dog DHODH [3] = biological target: T1, Dog DHODH; conditions: read-out: Dog DHODH IC50; 25° C., DCIP assay
Description: as §1

[4] = tested on: P. vivax clinical isolates; conditions: ex vivo, separate study in Indonesia, previously reported; cited from earlier work
[5] = tested on: P. falciparum clinical isolates; conditions: ex vivo, separate study in Indonesia, previously reported; cited from earlier work
[6] = metabolic stability, Human Clint
[7] = 25° C., DCIP assay, read-out: P. vivax DHODH IC50

Row | Molecule | IC50 (Human DHODH) | microsomal CLint (in vitro) | IC50 (Mouse DHODH) | IC50 (Rat DHODH) | further results
1 | Cc1c(C2(c3ccc(C(F)(F)F)nc3)CC2)c[nH]c1C(=O)NC(C)c1nc[nH]n1 (single isomer, unassigned) [Compound 2, 3-methyl-N-[1-(1H-1,2,4-triazol-3-yl)ethyl]-4-{1-[6-(trifluoromethyl)pyridin-3-yl]cyclopropyl}-1H-pyrrole-2-carboxamide] | > 100 µM | 11 µL/min/mg | > 100 µM | > 100 µM | DOR (day of recrudescence) ([1]; SCID mouse): 22; AUCED90 ([1]; SCID mouse, b.i.d. for 6 days): 35.6 μM · h/day; CED90 ([1]; SCID mouse, b.i.d. for 6 days): 1.48 µM/day; ED90 ([1]; mouse, in vivo): 25.6 mg/kg; IC50 (Dog DHODH [2]): > 100 µM
2 | Cc1c(Cc2ccc(C(F)(F)F)nc2)c[nH]c1C(=O)NC(C)c1cnn(C)c1 (single isomer, unassigned) [Compound 35, 3-methyl-N-(1-(1-methyl-1H-pyrazol-4-yl)ethyl)-4-((6-(trifluoromethyl)pyridin-3-yl)methyl)-1 H-pyrrole-2-carboxamide] | > 100 µM |  | > 100 µM | > 100 µM | solubility (physchem): 60 µg/mL (≈ 153 µM); IC50 (Dog DHODH [2]): > 100 µM; IC50 (P. vivax DHODH): 0.036 µM
3 | Cc1c(C2(c3ccc(C(F)(F)F)nc3)CC2)c[nH]c1C(=O)NC(C)c1cc(C#N)[nH]n1 (single isomer, unassigned) [Compound 17, N-(1-(5-cyano-1H-pyrazol-3-yl)ethyl)-3-methyl-4-(1-(6-(trifluoromethyl)pyridin-3-yl)cyclopropyl)-1H-pyrrole-2-carboxamide] | > 100 µM | 16 µL/min/mg |  |  | 
4 | N-(1-(1H-1,2,4-triazol-3-yl) ethyl)-4-(3-fluoro-4-(trifluoromethyl)benzyl)-3-methyl-1H-pyrrole-2-carboxamide [Compound 5] | > 100 µM |  |  |  | EC50 (P. falciparum 3D7): 0.039 µM; IC50 (P. vivax DHODH; [7]): 0.061 µM; IC50 (P. falciparum DHODH): 0.11 µM
5 | Cc1cc(C(C)NC(=O)c2[nH]cc(C3(c4ccc(C(F)(F)F)nc4)CC3)c2C)n[nH]1 (single isomer, unassigned) [Compound 11, 3-methyl-N-[1-(5-methyl-1H-pyrazol-3-yl)ethyl]-4-{1-[6-(trifluoromethyl)pyridine-3-yl]cyclopropyl}-1H-pyrrole-2-carboxamide] | > 100 µM | 40 µL/min/mg |  |  | 
6 | Cc1c(C2(c3ccc(C(F)(F)F)nc3)CC2)c[nH]c1C(=O)NC(C)c1cn[nH]c1 (single isomer, unassigned) [Compound 8, N-(1-(1H-pyrazol-4-yl)ethyl)-3-methyl-4-(1-(6-(trifluoromethyl)pyridin-3-yl)cyclopropyl)-1H-pyrrole-2-carboxamide] | > 100 µM | 66 µL/min/mg |  |  | 
7 | Cc1c(C2(c3ccc(C(F)(F)F)nc3)CC2)c[nH]c1C(=O)NC(C)c1cc(C(N)=O)[nH]n1 (stereo not drawn) [Compound 14] | > 100 µM |  | > 100 µM | > 100 µM | IC50 (Dog DHODH [3]): > 100 µM; IC50 (P. vivax DHODH; [7]): 0.17 µM; IC50 (P. falciparum DHODH): 0.14 ± 0.057 µM
8 | Cc1cc(Nc2ccc(S(F)(F)(F)(F)F)cc2)n2nc(C(C)(F)F)nc2n1 [DSM265, 2-(1,1-difluoroethyl)-5-methyl-N-[4-(pentafluoro-λ^6-sulfanyl)phenyl]-[1,2,4]triazolo[1,5-a]pyrimidin-7-amine, reference compound] |  | < 7 µL/min/mg |  |  | DOR (day of recrudescence) ([1]; SCID mouse): 21; AUCED90 ([1]; SCID mouse, b.i.d. for 6 days): 35.4 μM · h/day; ED90 ([1]; SCID mouse, b.i.d. for 6 days, clears 90% of parasites 24 h post final dose on day 7): 16.7 mg/kg; CED90 ([1]; SCID mouse, b.i.d. for 6 days): 1.48 µM/day; EC50 [4]: 0.92 µM; EC50 [5]: 0.19 µM; FaSSIF Solubility pH 6.5 5 h (FaSSIF, pH 6.5, 5 h): 5.1 μg/ml
9 | Cc1c(Cc2ccc(C(F)(F)F)nc2)c[nH]c1C(=O)NC(C)c1cn[nH]c1 (stereo not drawn) [Compound 32] | > 100 µM |  | > 100 µM | > 100 µM | IC50 (Dog DHODH [3]): > 100 µM; Human Clint [6]: 20 μL/min/mg protein; IC50 (P. vivax DHODH; [7]): 0.043 µM; IC50 (P. falciparum DHODH): 0.047 ± 0.0079 µM; FaSSIF Solubility pH 6.5 5 h (pH 6.5): 34 μg/ml
10 | Cc1c(C2(c3ccc(C(F)(F)F)nc3)CC2)c[nH]c1C(=O)NC(C)c1c[nH]cn1 (single isomer, unassigned) [Compound 20, N-(1-(1H-imidazol-4-yl)ethyl)-3-methyl-4-(1-(6-(trifluoromethyl)pyridin-3-yl)cyclopropyl)-1H-pyrrole-2-carboxamide] | > 100 µM | 35 µL/min/mg |  |  | 
11 | Cc1cc(C(C)NC(=O)c2[nH]cc(Cc3ccc(C(F)(F)F)nc3)c2C)no1 (single isomer, unassigned) [Compound 29, 3-methyl-N-(1-(5-methylisoxazol-3-yl)ethyl)-4-((6-(trifluoromethyl)pyridin-3-yl)methyl)-1H-pyrrole-2-carboxamide] | > 100 µM | 29 µL/min/mg | > 100 µM | > 100 µM | IC50 (Dog DHODH [2]): > 100 µM

From patent publication US11903936B2, “Anti-malarial agents” (THE BOARD OF REGENTS OF THE UNIVERSITY OF TEXAS SYSTEM, priority 2019, dated 2024)
